Experimental findings from patent US20240116921A1, “LACTAM (HETERO)[…] DERIVATIVES AS INHIBITORS OF ERBB2” (EnLiven Therapeutics, Inc., priority 2020, published 2024) are described below.

In one assay the test system is BT-474. The assay is described as follows: Cell viability assay (CellTiter Glo), BT-474. The following applies: Homo sapiens; BT-474 cells, 72 hours, CellTiter Glo; read-out: IC50, cell viability, BT-474. The format is cell-based. A general note: In ATP-based viability assays light output follows the ATP content of the culture.
For assay [1], the target named is T1, phosphorylated ERBB2 (pERBB2) (Homo sapiens, UniProt P04626).
T1 construct: endogenous in cells; host or cells: BT-474
T1 sequence (P04626 23-1255): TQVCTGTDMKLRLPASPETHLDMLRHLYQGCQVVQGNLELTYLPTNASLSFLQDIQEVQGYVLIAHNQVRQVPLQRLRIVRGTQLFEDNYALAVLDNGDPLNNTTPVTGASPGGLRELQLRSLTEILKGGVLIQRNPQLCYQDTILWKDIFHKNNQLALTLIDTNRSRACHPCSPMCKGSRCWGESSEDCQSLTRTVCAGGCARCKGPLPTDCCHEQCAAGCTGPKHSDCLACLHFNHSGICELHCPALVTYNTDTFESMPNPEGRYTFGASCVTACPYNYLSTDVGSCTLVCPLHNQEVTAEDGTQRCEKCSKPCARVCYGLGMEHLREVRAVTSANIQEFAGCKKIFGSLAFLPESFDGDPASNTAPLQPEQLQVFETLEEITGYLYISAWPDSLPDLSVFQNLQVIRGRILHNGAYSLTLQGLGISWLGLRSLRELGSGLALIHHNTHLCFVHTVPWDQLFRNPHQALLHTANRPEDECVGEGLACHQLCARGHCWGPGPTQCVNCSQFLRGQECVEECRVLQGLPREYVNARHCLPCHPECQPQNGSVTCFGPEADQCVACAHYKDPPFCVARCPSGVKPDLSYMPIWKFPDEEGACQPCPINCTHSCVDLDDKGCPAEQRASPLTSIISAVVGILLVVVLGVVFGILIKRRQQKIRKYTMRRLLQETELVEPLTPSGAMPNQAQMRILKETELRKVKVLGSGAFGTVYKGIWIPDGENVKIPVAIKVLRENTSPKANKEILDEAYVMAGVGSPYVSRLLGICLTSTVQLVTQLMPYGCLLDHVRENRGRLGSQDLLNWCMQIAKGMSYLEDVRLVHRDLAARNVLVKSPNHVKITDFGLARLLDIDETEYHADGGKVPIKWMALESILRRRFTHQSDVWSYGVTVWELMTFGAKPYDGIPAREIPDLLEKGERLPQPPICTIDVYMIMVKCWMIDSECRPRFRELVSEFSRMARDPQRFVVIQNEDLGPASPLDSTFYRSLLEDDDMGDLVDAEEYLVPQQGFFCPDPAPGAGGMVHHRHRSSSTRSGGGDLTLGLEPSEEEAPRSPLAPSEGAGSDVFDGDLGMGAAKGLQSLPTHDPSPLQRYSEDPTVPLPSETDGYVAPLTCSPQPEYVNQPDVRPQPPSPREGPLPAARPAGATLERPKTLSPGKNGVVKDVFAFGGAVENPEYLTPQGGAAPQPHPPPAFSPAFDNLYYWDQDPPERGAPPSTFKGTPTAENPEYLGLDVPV
Description: Detection of phosphorylated ERBB2 (pERBB2) by ELISA in BT-474 cells. The format is cell-based. The following applies: four hours incubation. The method in brief:
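BT-474 cells (2.0×10^4/well) treated 4 h at 37 °C, 5% CO2 with compounds in four-fold dilutions from 10 µM to 0.01 nM. Lysate pERBB2 measured by ELISA with TMB read at 450 nm; % relative activity scaled between no-cell wells and 0.1% DMSO-treated cells.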
For orientation: In an ELISA, binding on a coated surface is turned into a signal by an enzyme label.

Assay [2] has as its target T2, phosphorylated EGFR (pEGFR) (Homo sapiens, UniProt P00533).
T2 construct: performed to measure phosphorylated EGFR levels using A431 cells (10% FBS); endogenous in cells; host or cells: A431
Description: Detection of phosphorylated EGFR (pEGFR) in EGF-stimulated A431 cells. The following applies: A431 cells (10% FBS), 4 hours incubation, EGF 30 ng/mL 10 minutes, AlphaLISA. The format is cell-based. The method in brief:
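A431 cells in 10% FBS were preincubated with compound for 4 h at 37 °C, then stimulated with EGF (30 ng/mL final) for 10 min. pEGFR in lysates was read by AlphaLISA. % inhibition was calculated against DMSO and staurosporine-treated controls, and IC50 came from a four-parameter curve fit.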
(Bead proximity is the source of the signal in Alpha formats.)

In another assay the test system is A431. Description: Cell viability assay (CellTiter Glo), A431. The format is cell-based. The following applies: Homo sapiens, A-431, A431 cells, 72 hours.
Assay [3] concerns the target Ba/F3 ERBB2 A775_G776insYVMA (Homo sapiens, UniProt P04626, DUP772-775, cells depend on it). Description: Cell viability assay, Ba/F3 ERBB2 A775_G776insYVMA. The format is cell-based, mouse. The following applies: 72 hours, CellTiter Glo. The gist of the method: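 IL-3-independent Ba/F3 lines stably expressing the human ERBB2 insertion mutants were seeded at 3000 cells/well and exposed to compounds for 72 h at 37 °C, 5% CO2. Viability was read as ATP by CellTiter-Glo luminescence. Curves were fitted by sigmoidal nonlinear regression.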

[4] abbreviates: Ba/F3 ERBB2 A775_G776insYVMA cells, Tables B2-B4, read-out: IC50, cell viability, Ba/F3 ERBB2 A775_G776insYVMA.
Where [5] appears, read: Ba/F3 ERBB2 YVMA cells, cell viability, Table B5, read-out: Ba/F3 ERBB2 YVMA, IC50.

Counter-ions that a name gives are not always drawn. Like-named read-outs stand apart in the source and are kept apart here.

Chain of Ba/F3 ERBB2 A775_G776insYVMA (P04626 with tags, fused parts or gaps DUP772-775): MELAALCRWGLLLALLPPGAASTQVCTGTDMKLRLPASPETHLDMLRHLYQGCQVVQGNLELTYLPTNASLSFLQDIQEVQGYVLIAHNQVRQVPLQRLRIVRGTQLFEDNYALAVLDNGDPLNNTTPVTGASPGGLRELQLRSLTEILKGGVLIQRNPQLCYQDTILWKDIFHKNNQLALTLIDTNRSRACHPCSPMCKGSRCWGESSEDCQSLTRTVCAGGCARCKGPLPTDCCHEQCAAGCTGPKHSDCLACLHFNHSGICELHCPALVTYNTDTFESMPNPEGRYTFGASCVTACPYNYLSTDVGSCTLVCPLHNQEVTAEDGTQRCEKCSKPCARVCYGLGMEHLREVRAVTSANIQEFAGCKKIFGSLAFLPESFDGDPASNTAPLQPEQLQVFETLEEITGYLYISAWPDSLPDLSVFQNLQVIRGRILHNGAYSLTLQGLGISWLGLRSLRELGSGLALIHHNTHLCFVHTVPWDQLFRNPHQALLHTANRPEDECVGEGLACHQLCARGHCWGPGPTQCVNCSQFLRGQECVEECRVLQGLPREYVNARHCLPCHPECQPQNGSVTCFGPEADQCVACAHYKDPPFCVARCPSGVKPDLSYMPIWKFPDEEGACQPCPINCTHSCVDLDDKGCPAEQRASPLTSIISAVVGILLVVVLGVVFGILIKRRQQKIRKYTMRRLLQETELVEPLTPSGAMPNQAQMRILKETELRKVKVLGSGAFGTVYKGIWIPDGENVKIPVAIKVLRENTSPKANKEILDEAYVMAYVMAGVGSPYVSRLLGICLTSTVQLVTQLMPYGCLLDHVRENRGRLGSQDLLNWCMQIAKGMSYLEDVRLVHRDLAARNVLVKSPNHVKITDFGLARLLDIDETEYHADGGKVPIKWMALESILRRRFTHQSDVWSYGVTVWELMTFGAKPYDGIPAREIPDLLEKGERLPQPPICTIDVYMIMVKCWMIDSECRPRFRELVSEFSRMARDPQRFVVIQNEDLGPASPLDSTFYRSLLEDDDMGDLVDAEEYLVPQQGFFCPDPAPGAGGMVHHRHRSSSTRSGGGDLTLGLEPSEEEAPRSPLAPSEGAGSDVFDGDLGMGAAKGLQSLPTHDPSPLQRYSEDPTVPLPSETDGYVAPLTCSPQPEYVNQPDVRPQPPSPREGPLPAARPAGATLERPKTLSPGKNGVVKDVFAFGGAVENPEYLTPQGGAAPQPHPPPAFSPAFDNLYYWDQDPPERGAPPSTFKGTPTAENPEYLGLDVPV
T2 sequence (P00533 25-1210): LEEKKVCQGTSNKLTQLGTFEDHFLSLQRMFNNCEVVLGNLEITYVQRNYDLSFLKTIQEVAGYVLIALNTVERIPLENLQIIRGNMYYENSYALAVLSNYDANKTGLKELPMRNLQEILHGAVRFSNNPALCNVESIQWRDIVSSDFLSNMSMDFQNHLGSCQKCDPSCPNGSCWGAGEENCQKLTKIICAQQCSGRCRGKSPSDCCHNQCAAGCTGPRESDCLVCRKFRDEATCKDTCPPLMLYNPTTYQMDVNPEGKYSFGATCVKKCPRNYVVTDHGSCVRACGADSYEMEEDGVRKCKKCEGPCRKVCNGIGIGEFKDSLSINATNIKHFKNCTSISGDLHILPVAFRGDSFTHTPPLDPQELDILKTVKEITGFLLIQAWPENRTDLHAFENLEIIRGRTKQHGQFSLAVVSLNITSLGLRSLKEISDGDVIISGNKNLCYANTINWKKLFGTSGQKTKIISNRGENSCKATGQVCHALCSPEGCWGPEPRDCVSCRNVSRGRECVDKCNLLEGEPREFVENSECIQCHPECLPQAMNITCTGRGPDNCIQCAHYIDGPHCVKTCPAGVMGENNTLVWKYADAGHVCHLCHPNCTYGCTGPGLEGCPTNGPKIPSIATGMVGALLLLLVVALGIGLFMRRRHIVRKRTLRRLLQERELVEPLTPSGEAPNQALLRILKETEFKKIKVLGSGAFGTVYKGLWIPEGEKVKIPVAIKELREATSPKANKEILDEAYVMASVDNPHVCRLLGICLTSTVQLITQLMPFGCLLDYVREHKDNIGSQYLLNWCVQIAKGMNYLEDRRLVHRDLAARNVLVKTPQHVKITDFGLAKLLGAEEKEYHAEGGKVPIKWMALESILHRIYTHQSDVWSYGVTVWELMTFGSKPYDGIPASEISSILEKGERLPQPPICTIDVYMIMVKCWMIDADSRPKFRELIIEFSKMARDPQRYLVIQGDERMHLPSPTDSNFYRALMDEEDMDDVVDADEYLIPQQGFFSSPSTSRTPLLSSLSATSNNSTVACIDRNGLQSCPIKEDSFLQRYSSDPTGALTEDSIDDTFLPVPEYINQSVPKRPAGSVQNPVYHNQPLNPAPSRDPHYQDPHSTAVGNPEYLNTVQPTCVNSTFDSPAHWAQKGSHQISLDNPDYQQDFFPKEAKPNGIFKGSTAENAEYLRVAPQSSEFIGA

Take `C=C1C(=O)N(c2ccc3ncnc(Nc4ccc(Oc5ccn6ncnc6c5)c(C)c4)c3c2)CC12CC2` [Compound 2, 5-[4-[(3-methyl-4-[[1,2,4]triazolo[1,5-a]pyridin-7-yloxy]phenyl)amino]quinazolin-6-yl]-7-methylidene-5-azaspiro[2.4]heptan-6-one]: the values for the IC50 (in the assay with BT-474; in assay [1]; in assay [2]) were 19.5 nM, 75.9 nM and > 10000 nM, respectively.

Take `C=C1CCN(c2ccc3ncnc(Nc4ccc(Oc5ccn(C)c(=O)c5)c(C)c4)c3c2)C1=O` [Compound 5, 1-methyl-4-(2-methyl-4-[[6-(3-methylidene-2-oxopyrrolidin-1-yl)quinazolin-4-yl]amino]phenoxy)pyridin-2-one]: the IC50 in the assay on BT-474 was 27.8 nM; in the assay with A431, > 10000 nM. The GI50 in assay [3] (setting [4]) is 236 nM.

Consider `C=C1CCN(c2ccc3ncnc(Nc4ccc(Oc5cnc(C)cn5)c(C)c4)c3c2)C1=O` [Compound 6, 1-[4-([3-methyl-4-[(5-methylpyrazin-2-yl)oxy]phenyl]amino)quinazolin-6-yl]-3-methylidenepyrrolidin-2-one], for which the IC50 in the assay with BT-474 is 16.1 nM; with A431, > 6520 nM. The GI50 in assay [3] (setting [4]) was > 1000 nM.

On to `C=C1CCN(c2ccc3ncnc(Nc4ccc(Oc5ccn6ncnc6c5)c(C)c4)c3c2F)C1=O` [Compound 7, 1-[5-fluoro-4-[(3-methyl-4-[[1,2,4]triazolo[1,5-a]pyridin-7-yloxy]phenyl)amino]quinazolin-6-yl]-3-methylidenepyrrolidin-2-one], for which the IC50 with BT-474 was 31.7 nM; in the assay with A431, > 10000 nM; in assay [1], 109 nM. The GI50 in assay [3] (setting [4]) is > 1000 nM.

Consider `C=C1CCN(c2ccc3ncnc(Nc4ccc(Cc5ccc(C)nc5)cc4)c3c2)C1=O` [Compound 8, 3-methylidene-1-[4-([4-[(6-methylpyridin-3-yl)methyl]phenyl]amino)quinazolin-6-yl]pyrrolidin-2-one], for which the IC50 came out at 52.9 nM in the assay on BT-474 and 7500 nM in the assay on A431.

On to `C=C1CCN(c2ccc3ncnc(Nc4ccc(Cc5ccn6ncnc6c5)cc4)c3c2)C1=O` [Compound 9, 3-methylidene-1-[4-[(4-[[1,2,4]triazolo[1,5-a]pyridin-7-ylmethyl]phenyl)amino]quinazolin-6-yl]pyrrolidin-2-one], for which the IC50 with BT-474 was 44.7 nM; in the assay with A431, > 10000 nM.

With `C=C1CCN(c2ccc3ncnc(Nc4ccc(Oc5ccn6ncnc6c5)c(Cl)c4)c3c2)C1=O` [Compound 10, 1-[4-[(3-chloro-4-[[1,2,4]triazolo[1,5-a]pyridin-7-yloxy]phenyl)amino]quinazolin-6-yl]-3-methylidenepyrrolidin-2-one], the values for the IC50 with BT-474 and in the assay with A431 were 27.1 nM and 673 nM, respectively.

For `C=C1CCN(c2ccc3ncnc(Nc4ccc(Oc5ccn6ncnc6c5)c(F)c4)c3c2)C1=O` [Compound 11, 1-[4-[(3-fluoro-4-[[1,2,4]triazolo[1,5-a]pyridin-7-yloxy]phenyl)amino]quinazolin-6-yl]-3-methylidenepyrrolidin-2-one], the IC50 was determined as 7670 nM with BT-474 and 6510 nM with A431.

`C=C1CCN(c2ccc3ncnc(Nc4ccc(Oc5ccn(C(F)F)c(=O)c5)c(C)c4)c3c2)C1=O` [Compound 12, 1-(difluoromethyl)-4-(2-methyl-4-[[6-(3-methylidene-2-oxopyrrolidin-1-yl)quinazolin-4-yl]amino]phenoxy)pyridin-2-one]: the IC50 was 20.4 nM in the assay with BT-474 and 7650 nM with A431. For the same compound, the GI50 in assay [3] (setting [4]) was 113 nM.

Take `C=C1CCN(c2ccc3ncnc(Nc4ccc(Oc5ccn6ncnc6c5)c(C)c4F)c3c2)C1=O` [Compound 14, 1-[4-[(2-fluoro-3-methyl-4-[[1,2,4]triazolo[1,5-a]pyridin-7-yloxy]phenyl)amino]quinazolin-6-yl]-3-methylidenepyrrolidin-2-one]: the IC50 with BT-474 stood at 4.32 nM; in assay [1], 26.9 nM; in assay [2], 3800 nM.

Consider `C=C1CCN(c2ccc3ncnc(Nc4cc(C)c(Oc5ccn6ncnc6c5)cc4F)c3c2)C1=O` [Compound 15, 1-[4 [(2-fluoro-5-methyl-4-[[1,2,4]triazolo[1,5-a]pyridin-7-yloxy]phenyl)amino]quinazolin-6-yl]-3-methylidenepyrrolidin-2-one], for which the IC50 in the assay on BT-474 turned out to be 3.27 nM; in assay [1], 8.15 nM; in assay [2], 1250 nM. For the same compound, in assay [3] (setting [4]), the GI50 was 245 nM.

With `C=C1CCN(c2ccc3ncnc(Nc4ccc(Cc5ccn6ncnc6c5)c(C)c4)c3c2)C1=O` [Compound 16, 1-[4-[(3-methyl-4-[[1,2,4]triazolo[1,5-a]pyridin-7-ylmethyl]phenyl)amino]quinazolin-6-yl]-3-methylidenepyrrolidin-2-one], the IC50 with BT-474 was 4.67 nM; in assay [1] it was 9.15 nM; in assay [2], 235 nM. In assay [3] (setting [4]), the GI50 was found to be 169 nM.

For `Cc1cc(Nc2ncnc3ccc(N4CC/C(=C\CN(C)C)C4=O)cc23)ccc1Oc1ccn2ncnc2c1` [Compound 18, (E)-1-(4-(4-([1,2,4]triazolo[1,5-a]pyridin-7-yloxy)-3-methylphenylamino)quinazolin-6-yl)-3-(2-(dimethylamino)ethylidene)pyrrolidin-2-one hydrochloride], the results for the concentration for half-maximal inhibition (IC50) (in the assay with BT-474; in assay [1]; in assay [2]) were 3.73 nM, 7.52 nM and > 9640 nM, respectively. Also, in assay [3] (setting [4]), the GI50 is 77.1 nM.

With `CN(C)C/C=C1\CCN(c2ccc3ncnc(Nc4cc(F)c(Oc5ccn6ncnc6c5)cc4F)c3n2)C1=O` [Compound 141, (E)-1-(4-((4-([1,2,4]triazolo[1,5-a]pyridin-7-yloxy)-2,5-difluorophenyl)amino)pyrido[3,2-d]pyrimidin-6-yl)-3-(2-(dimethylamino)ethylidene)pyrrolidin-2-one], the GI50 in assay [3] (setting [5]) is 28.5 nM. In addition, the IC50 was 23.8 nM in assay [1] and > 10000 nM in assay [2].

For `Cc1cc(Nc2ncnc3ccc(N4C(=O)/C(=C\CN(C)C)C5CC54)nc23)ccc1Oc1ccn2ncnc2c1` (stereo not drawn) [Compound 142, (4Z)-4-[2-(dimethylamino)ethylidene]-2-{4-[(3-methyl-4-{[1,2,4]triazolo[1,5-a]pyridin-7-yloxy}phenyl)amino]pyrido[3,2-d]pyrimidin-6-yl}-2-azabicyclo[3.1.0]hexan-3-one], the GI50 in assay [3] (setting [5]) stood at 5.8 nM. The IC50 in assay [1] stood at 15.4 nM; in assay [2] it was 543 nM.

Turning to `Cc1cc(Nc2ncnc3cnc(N4CC/C(=C\CN(C)C)C4=O)cc23)ccc1Oc1cncc(F)c1` [Compound 155, (3E)-3-[2-(dimethylamino)ethylidene]-1-[4-({4-[(5-fluoropyridin-3-yl)oxy]-3-methylphenyl}amino)pyrido[3,4-d]pyrimidin-6-yl]pyrrolidin-2-one], the GI50 in assay [3] (setting [5]) amounted to 35.4 nM. In addition, the IC50 came out at 17.9 nM in assay [1] and 331 nM in assay [2].

On to `CN(C)C/C=C1\CCN(c2ccc3ncnc(Nc4ccc(Oc5ccn6ncnc6c5)cc4F)c3n2)C1=O` [Compound 156, (E)-1-(4-((4-([1,2,4]triazolo[1,5-a]pyridin-7-yloxy)-2-fluorophenyl)amino)pyrido[3,2-d]pyrimidin-6-yl)-3-(2-(dimethylamino)ethylidene)pyrrolidin-2-one], for which the GI50 in assay [3] (setting [5]) was 23.3 nM. Further, the values for the IC50 in assay [1] and in assay [2] were 21.7 nM and 7760 nM, respectively.

One may read the IC50 as the concentration that inhibits the measured activity by half.
